Values quoted from earlier work as cited in paper PMC3910343 (Nephrology Dialysis Transplantation, 2013).

Details: oral cinacalcet

initial half-life: ~6 h | time to steady state: ≤ 7 days
SMILES: C[C@@H](NCCCc1cccc(C(F)(F)F)c1)c1cccc2ccccc12 [cinacalcet]
